Assay results as given in US10675257B2, “Method of treating cancer with a combination of benzylideneguanidine derivatives and chemotherapeutic agent” (InFlectis BioScience, priority 2015, dated 2020).
“Also recorded” adds a separate entry of the source. Structures can show the parent of a compound that is named as a salt.

Test system: glioblastoma cell line GL261
Test: GL261 glioblastoma tumor grafted on the chorio-allantoic membrane (CAM) of embryonated chicken eggs, tumor weight at E19
Format: in vivo, chicken embryo (Fertilized White Leghorn eggs)
Conditions: for Tumor weight (mg) (N = 18) / Tumor weight (mg) (N = 7 to 12): after 10 days of treatment; for Effect on GL261 tumor size/weight on the upper CAM, in words: test compound (100 nM) together with temozolomide (500 microM), compared to temozolomide alone or compound alone; for Effect on GL261 tumor size, in words: test compound alone (100 nM)
Procedure: Fertilized White Leghorn eggs were incubated at 38° C. with 60% relative humidity for 9 days. At this time (E9), the chorio-allantoic membrane (CAM) was dropped by drilling a small hole through the eggshell into the air sac and a 1 cm^2 window was cut in the eggshell above the CAM.
Cultured glioblastoma cell line GL261 were detached by trypsinization, washed with complete medium, labeled and suspended in serum free DMEM. An inoculum of GL261 cells was added onto the CAM of each egg. Eggs were then randomized in 6 groups.
They were then treated during 10 days, every two days (E10, E12, E14, E16, E18), by dropping 100 μl of test compound (100 nM), Temozolomide (500 microM), test compound (100 nM) and Temozolomide (500 microM), or Control (0.02% DMSO) onto the tumor.
At day E19 the upper portion of the CAM was removed, transferred in PBS and the tumors were then carefully cut away from normal CAM tissue. Tumors were then weighted. In parallel, a 1 cm^2 portion of the lower CAM was collected to evaluate the number of nodules, containing expressing cells. The fluorescent nodules were visualized in situ using whole mounts of fixed tissue and flattened between a hollow glass slide and a thick coverslip. In order to number the nodules, a thorough and complete visual scan of the piece of the lower CAM was done using fluorescent microscope.
Glioblastoma cell line GL261 was grafted on the chorio-allantoic membrane (CAM) of Fertilized White Leghorn eggs. The tumors were treated every two days with test compound ([…]), temolozomide (500 microM) or test compound (100 nM) and temozolomide (500 microM). For the control, the tumors were treated with 0.02% DMSO. Between seven (7) to eighteen (18) eggs were treated for each condition.

[1] = combination test compound/Temozolomide 100 nM/500microM, control 120.5
[2] = combination test compound/Temozolomide 100 nM/500 μM, control 106.65
[3] = test compound alone 100 nM, control (0.02% DMSO) 106.65

Row | SMILES | Tumor weight (mg) (N = 7 to 12) [2] | Effect on GL261 tumor size, in words | Effect on GL261 tumor size/weight on the upper CAM, in words | further results
1 | NC(N)=N/N=C/c1c(Cl)cccc1Cl [Compound 1, 2-(2,6-dichlorobenzylidene)hydrazine carboximidamide, reference compound] |  |  |  | Tumor weight (mg) (N = 18) [1]: 68.3 mg; Tumor weight (mg) (N = 18) (test compound alone 100 nM, control (0.02% DMSO) 120.5): 115 mg
2 | CC(=O)O.N=C(N)N/N=C/c1ccncc1Cl [Compound 6, 2-[(3-chloropyridin-4-yl)methylidene]hydrazinecarboximidamide Acetate] | 70.45 |  |  | Effect on GL261 tumor size/weight on the upper CAM, in words (Acetate): synergistic reduction of GL261 tumor weight; also recorded: synergistic effect to reduce the tumor size; Tumor weight (mg) (N = 7 to 12) [3]: 107.76 mg; Effect on GL261 tumor size, in words (Acetate): no effect on tumor size reduction; also recorded: no effect to reduce the tumor size
3 | CC(C)CCO/N=C(\N)N/N=C/c1ccccc1Cl [Compound 11, Formate Salt] | 67.29 | reduces the tumor size |  | Effect on GL261 tumor size/weight on the upper CAM, in words (Formate Salt): synergistic reduction of GL261 tumor weight; also recorded: synergistic effect to reduce the tumor size; Tumor weight (mg) (N = 7 to 12) [3]: 87.63 mg
4 | C=CCO/N=C(\N)N/N=C/c1ccccc1Cl [Compound 15, 2-(2-chlorobenzylidene)-N′-(prop-2-en-1-yloxy)hydrazine Carboximidamide] | 40.66 | reduces the tumor size | synergistic reduction of GL261 tumor weight; also recorded: synergistic effect to reduce the tumor size | Tumor weight (mg) (N = 7 to 12) [3]: 63.44 mg
5 | N/C(=N\OCCO)N/N=C/c1ccccc1Cl [Compound 16, 2-(2-chlorobenzylidene)-N′-(2-hydroxyethoxy)hydrazinecarboximidamide] | 48.11 | display anti-glioma activity by reducing the tumor size | further reduction of GL261 tumor weight; also recorded: further reduce the tumor size | 
6 | CCO/N=C(\N)N/N=C/c1ccccc1Cl [Compound 20, 2-(2-chlorobenzylidene)-N′-ethoxyhydrazinecarboximidamide] | 73.51 | display anti-glioma activity by reducing the tumor size | further reduction of GL261 tumor weight; also recorded: further reduce the tumor size | 
7 | CCCO/N=C(\N)N/N=C/c1ccccc1Cl [Compound 22, 2-(2-chlorobenzylidene)-N-propoxyhydrazinecarboximidamide] |  |  | synergistic reduction of GL261 tumor weight; also recorded: synergistic effect to reduce the tumor size | Tumor weight (mg) (N = 18) [1]: 48.4 mg
8 | CCSCCO/N=C(\N)N/N=C/c1ccccc1Cl [Compound 25, 2-(2-chlorobenzylidene)-N-[2-(ethylsulfanyl)ethoxy]hydrazinecarboximidamide] | 43.6 |  |  | 
9 | CCO/N=C(\N)N/N=C/c1ccncc1Cl [Compound 26, 2-[(3-chloropyridin-4-yl)methylidene]-N-ethoxyhydrazinecarboximidamide] | 66.23 | display anti-glioma activity by reducing the tumor size | further reduction of GL261 tumor weight; also recorded: further reduce the tumor size | 
10 | CCCCO/N=C(\N)N/N=C/c1ccccc1Cl [Compound 28, N′-butoxy-2-(2-chlorobenzylidene)hydrazinecarboximidamide] | 51.33 | display anti-glioma activity by reducing the tumor size | further reduction of GL261 tumor weight; also recorded: further reduce the tumor size | 
11 | CCCO/N=C(\N)N/N=C/c1c(F)cccc1Cl [Compound 29, 2-(2-chloro-6-fluorobenzylidene)-N′-propoxyhydrazinecarboximidamide] | 54.13 | display anti-glioma activity by reducing the tumor size | further reduction of GL261 tumor weight; also recorded: further reduce the tumor size | 
12 | CCCO/N=C(\N)N/N=C/c1ccncc1Cl [Compound 33, 2-[(3-chloropyridin-4-yl)methylidene]-N-propoxyhydrazinecarboximidamide] | 62.42 | display anti-glioma activity by reducing the tumor size | further reduction of GL261 tumor weight; also recorded: further reduce the tumor size | 
13 | Cn1nnc2c(C(N)=O)ncn2c1=O [Temozolomide, 3,4-dihydro-3-methyl-4-oxoimidazo [5,1-d]-as-tetazine-8-carboxamide, reference compound] |  |  |  | Tumor weight (mg) (N = 7 to 12) (Temozolomide alone 500 μM, control (0.02% DMSO) 106.65): 90.17 mg; Tumor weight (mg) (N = 18) (Temozolomide alone 500microM, control (0.02% DMSO) 120.5): 86.3 mg
